According to patent publication US6444685B1, “N-(4-sulfonylaryl)Cyclylamine 2-hydroxyethylamines as beta-3 adrenergic receptor agonists” (Wyeth, priority 2000, dated 2002):

Experiments:
Format in all cases: cell-based
[1] = biological target: T1, human β1-adrenergic receptor (Homo sapiens, UniProt P08588); test: cAMP accumulation (SPA) in CHO cells transfected with human β1 adrenergic receptor; conditions: for EC50: CHO cells transfected with human β1-AR, cAMP, 15 min incubation, 10^−8 to 10^−4 M, read-out: beta-1 EC50; for beta-1 (IA) maximal response relative to isoproterenol: IA = % activity compound / % activity isoproterenol at 10^−5 M, CHO human β1 cells
T1 construct: expressed in transfected cells; host or cells: CHO cells
Procedure: (§1) The ability of compounds of this invention to treat or inhibit disorders related to insulin resistance or hyperglycemia was established with representative compounds of this invention in the following standard pharmacological test procedures, which measured the binding selectivity to the β1, β2, and β3 adrenergic receptors. Binding to the receptors was measured in Chinese Hamster ovary (CHO) cells that were transfected with adrenergic receptors. The following briefly summarizes the procedures used and results obtained.
(§2) Transfection of CHO cells with β1 and β2 adrenergic receptors: CHO cells were transfected with human β1- or β2-adrenergic receptors as described in Tate, K. M., Eur. J. Biochem., 196:357-361 (1991).
(§3) Binding Procedure: Clones expressing receptor levels of 70 to 110 fmoles/mg protein were used in the test procedures. CHO cells were grown in 24-well tissue culture plates in Dulbecco's Modified Eagle Media with 10% fetal bovine serum, MEM non-essential amino acids, Penicillin-Streptompycin and Geneticin. On the day of test procedure, growth medium was replaced with preincubation media (Dulbecco's Modified Eagle Media and incubated for 30 minutes at 37° C. Preincubation medium was replaced with 0.2 ml treatment medium containing DMEM media containing 250 μM IBMX (isobutyl-1-methylxantine) plus 1 mM ascorbic acid with test compound dissolved in DMSO. Test compounds were tested over a concentration range of 10^−9 M to 10^−5 M for β3 cells and 10^−8 to 10^−4 M for β1 and β2 transfected cells. Isoproterenol (10^−5 M) was used as an internal standard for comparison of activity. Cells were incubated at 37° C. on a rocker for 30 min with the β3 cells and 15 min for β1 and β2 cells. Incubation was stopped with the addition of 0.2N HCl and neutralized with 2.5N NaOH. The plates, containing the cells and neutralized media, were stored at −20 degrees celsius until ready to test for cAMP using the SPA test kit (Amersham).
(§4) Data Analysis and Results: Data collected from the SPA test procedure were analyzed as per cent of the maximal isoproterenol response at 10^−5 M. Activity curves were plotted using the SAS statistical and graphics software. EC50 values were generated for each compound and the maximal response (IA) developed for each compound is compared to the maximal response of isoproternol at 10^−5 M from the following formula:
(§5) IA=% activity compound/% activity isoproterenol

[2] = biological target: T2, human β3 adrenergic receptor (Homo sapiens, UniProt P13945); test: cAMP accumulation (SPA) in CHO cells transfected with human β3 adrenergic receptor; conditions: for EC50: CHO cells expressing human β3-AR, cAMP, 30 min incubation, 10^−9 M to 10^−5 M, read-out: beta-3 EC50; for beta-3 (IA) maximal response relative to isoproterenol: IA = % activity compound / % activity isoproterenol at 10^−5 M, CHO human β3 cells
T2 construct: Full length β3 AR clones (402 amino acids) containing the last 6 amino acids of hβ3— AR are prepared; expressed in transfected cells; host or cells: CHO cells
Procedure: as §1
Cloning of Human β3-AR Genomic DNA: cDNA was constructed by ligating four polymerase chain reaction (PCR) products using the following primers: an ATG-Narl fragment, sense primer 5′-[…]3′ and anti-sense primer 5′[…]3′; a Narl-Accl fragment, 5′[…]3′ as sense and 5′[…]3′ as anti-sense primer; an Accli-Styl fragment, sense primer 5′[…]3′ and anti-sense primer 5′[…]3′ and a Styl-TAG fragment, with sense primer 5′[…]3′ and anti-sense primer 5′[…]3′. The corresponding primer sequences are described in Mantzoros, C. S., et.al., Diabetes 45: 909-914 (1996). The four fragments are ligated into a pUC 18 plasmid (Gibco-BRL) and sequenced. Full length β3 AR clones (402 amino acids) containing the last 6 amino acids of hβ3— AR are prepared with the β3-βARpcDNA3from ATTC.
as §3, §4, §5

[3] = biological target: T3, human β2-adrenergic receptor (Homo sapiens, UniProt P07550); test: cAMP accumulation (SPA) in CHO cells transfected with human β2 adrenergic receptor; conditions: for EC50: CHO cells transfected with human β2-AR, cAMP, 15 min incubation, 10^−8 to 10^−4 M, read-out: beta-2 EC50; for beta-2 (IA) maximal response relative to isoproterenol: IA = % activity compound / % activity isoproterenol at 10^−5 M, CHO human β2 cells
T3 construct: expressed in transfected cells; host or cells: CHO cells
Procedure: as §1, §2, §3, §4, §5

T1 sequence (P08588 whole entry): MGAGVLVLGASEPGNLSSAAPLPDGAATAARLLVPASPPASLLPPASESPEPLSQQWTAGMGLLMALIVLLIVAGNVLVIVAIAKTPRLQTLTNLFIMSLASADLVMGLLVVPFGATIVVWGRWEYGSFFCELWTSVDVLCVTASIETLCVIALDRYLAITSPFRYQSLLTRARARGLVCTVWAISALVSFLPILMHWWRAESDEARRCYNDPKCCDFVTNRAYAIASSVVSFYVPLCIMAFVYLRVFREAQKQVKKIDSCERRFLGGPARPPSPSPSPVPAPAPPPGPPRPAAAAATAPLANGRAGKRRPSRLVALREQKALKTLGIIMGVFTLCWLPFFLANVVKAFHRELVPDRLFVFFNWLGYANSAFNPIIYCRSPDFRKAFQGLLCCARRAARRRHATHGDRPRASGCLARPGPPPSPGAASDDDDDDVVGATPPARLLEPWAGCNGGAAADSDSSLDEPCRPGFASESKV
T2 sequence (P13945 whole entry): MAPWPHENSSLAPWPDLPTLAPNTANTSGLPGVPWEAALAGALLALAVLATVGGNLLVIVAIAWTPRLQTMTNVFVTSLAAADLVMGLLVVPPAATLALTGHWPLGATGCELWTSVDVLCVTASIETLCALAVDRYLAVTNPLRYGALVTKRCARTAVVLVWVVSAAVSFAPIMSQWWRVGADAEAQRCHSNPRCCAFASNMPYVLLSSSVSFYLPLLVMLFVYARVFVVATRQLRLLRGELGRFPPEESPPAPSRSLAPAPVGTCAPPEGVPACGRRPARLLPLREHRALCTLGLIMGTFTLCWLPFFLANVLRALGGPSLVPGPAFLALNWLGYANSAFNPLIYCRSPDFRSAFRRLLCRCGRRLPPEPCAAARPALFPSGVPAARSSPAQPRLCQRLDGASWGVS
T3 sequence (P07550 whole entry): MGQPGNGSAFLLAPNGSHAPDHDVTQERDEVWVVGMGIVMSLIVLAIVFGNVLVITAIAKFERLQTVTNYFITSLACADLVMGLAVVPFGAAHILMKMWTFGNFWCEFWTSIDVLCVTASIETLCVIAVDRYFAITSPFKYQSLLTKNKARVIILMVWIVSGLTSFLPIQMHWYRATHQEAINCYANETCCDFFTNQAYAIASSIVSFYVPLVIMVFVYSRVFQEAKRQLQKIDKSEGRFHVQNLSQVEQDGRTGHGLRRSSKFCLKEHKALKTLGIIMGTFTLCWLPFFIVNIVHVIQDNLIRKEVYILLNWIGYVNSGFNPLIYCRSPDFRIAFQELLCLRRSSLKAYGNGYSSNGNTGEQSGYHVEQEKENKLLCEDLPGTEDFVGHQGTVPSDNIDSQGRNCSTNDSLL

Row | Compound | EC50 [1] | beta-1 (IA) maximal response relative to isoproterenol [1] | EC50 [2] | beta-3 (IA) maximal response relative to isoproterenol [2] | EC50 [3] | beta-2 (IA) maximal response relative to isoproterenol [3]
1 | CC(C)CNS(=O)(=O)c1ccc(N2CCC(NC[C@H](O)c3ccc(O)c(NS(C)(=O)=O)c3)CC2)cc1 [Example 27, 4-{4-[(2R)-2-Hydroxy-2-(4-hydroxy-3-methanesulfonylamino-phenyl)-ethylamino]-piperidin-1-yl}-N-isobutyl-benzenesulfonamide] | 420 nM | (0.22) | 2 nM | (1) | 540 nM | (0.29)
2 | CCOC(=O)CN(CC1CC1)S(=O)(=O)c1ccc(N2CCC(NC[C@H](O)c3ccc(O)c(NS(C)(=O)=O)c3)CC2)cc1 [Example 28, [Cyclopropylmethyl-(4-{4-[(2R)-2-hydroxy-2-(4-hydroxy-3-methanesulfonylamino-phenyl)-ethylamino]-piperidin-1-yl}-benzenesulfonyl)-amino]-acetic Acid Ethyl Ester] |  | (0.24) | 2 nM | (0.94) | 6600 nM | (0.85)
3 | CC(C)NS(=O)(=O)c1ccc(N2CCC(NC[C@H](O)c3ccc(O)c(NS(C)(=O)=O)c3)CC2)cc1 [Example 29, 4-{4-[(2R)-2-Hydroxy-2-(4-hydroxy-3-methanesulfonylamino-phenyl)-ethylamino]-piperidin-1-yl}-N-isopropyl-benzenesulfonamide] | 2000 nM | (0.57) | 7 nM | (1.3) | 2900 nM | (0.48)
4 | CCOC(=O)[C@H]1CCCN1S(=O)(=O)c1ccc(N2CCC(NC[C@H](O)c3ccc(O)c(NS(C)(=O)=O)c3)CC2)cc1 [Example 30, 1-(4-{4-[(2R)-2-Hydroxy-2-(4-hydroxy-3-methanesulfonylamino-phenyl)-ethylamino]-piperidin-1-yl}-benzenesulfonyl)-pyrrolidine-(2R)-2-carboxylic Acid Ethyl Ester] | 9800 nM | (1.1) | 4 nM | (1.2) | 3600 nM | (0.36)
5 | CS(=O)(=O)Nc1cc([C@@H](O)CNC2CCN(c3ccc(S(=O)(=O)N(CC(=O)O)CC4CC4)cc3)CC2)ccc1O [Example 31, [Cyclopropylmethyl-(4-{4-[(2R)-2-hydroxy-2-(4-hydroxy-3-methanesulfonylamino-phenyl)-ethylamino]-piperidin-1-yl}-benzenesulfonyl)-amino]-acetic Acid] | 20000 nM | (0.96) | 7 nM | (1.2) | 12000 nM | (0.33)
6 | CCOC(=O)CN(CC(C)C)S(=O)(=O)c1ccc(N2CCC(NC[C@H](O)c3ccc(O)c(NS(C)(=O)=O)c3)CC2)cc1 [Example 32, [(4-{4-[(2R)-2-Hydroxy-2-(4-hydroxy-3-methanesulfonylamino-phenyl)-ethylamino]-piperidin-1-yl}-benzenesulfonyl)-isobutyl-amino]-acetic Acid Ethyl Ester] | 6700 nM | (0.48) | 4 nM | (1) | 10000 nM | (0.57)
7 | CN(CC(=O)O)S(=O)(=O)c1ccc(N2CCC(NC[C@H](O)c3ccc(O)c(NS(C)(=O)=O)c3)CC2)cc1 [Example 33, [(4-{4-[(2R)-2-Hydroxy-2-(4-hydroxy-3-methanesulfonylamino-phenyl)-ethylamino]-piperidin-1-yl}-benzenesulfonyl)-methyl-amino]-acetic Acid] | 25000 nM | (0.66) | 18 nM | (1) |  | (0.15)

The remaining lines, values ahead:

Row | EC50 [1] | beta-1 (IA) maximal response relative to isoproterenol [1] | EC50 [2] | beta-3 (IA) maximal response relative to isoproterenol [2] | EC50 [3] | beta-2 (IA) maximal response relative to isoproterenol [3] | Compound
8 | 10000 nM | (0.49) | 6 nM | (1.1) |  | (0.14) | CC(C)CN(CC(=O)O)S(=O)(=O)c1ccc(N2CCC(NC[C@H](O)c3ccc(O)c(NS(C)(=O)=O)c3)CC2)cc1 [Example 34, [(4-{4-[(2R)-2-Hydroxy-2-(4-hydroxy-3-methanesulfonylamino-phenyl)-ethylamino]-piperidin-1-yl}-benzenesulfonyl)-isobutyl-amino]-acetic Acid]
9 | 49000 nM | (0.66) | 11 nM | (1.1) |  | (0.04) | CS(=O)(=O)Nc1cc([C@@H](O)CNC2CCN(c3ccc(S(=O)(=O)N4CCC[C@@H]4C(=O)O)cc3)CC2)ccc1O [Example 35, 1-(4-{4-[(2R)-2-Hydroxy-2-(4-hydroxy-3-methanesulfonylamino-phenyl)-ethylamino]-piperidin-1-yl}-benzenesulfonyl)-pyrrolidine-(2R)-2-carboxylic Acid]
10 | 4800 nM | (0.85) | 9 nM | (1) | 720 nM | (0.19) | CCOC(=O)[C@@H]1CCCN1S(=O)(=O)c1ccc(N2CCC(NC[C@H](O)c3ccc(O)c(NS(C)(=O)=O)c3)CC2)cc1 [Example 36, Ethyl (2S)-1-[(4-{4-[((2R)-2-Hydroxy-2-{4-hydroxy-3-[(methylsulfonyl)amino]phenyl}ethyl)amino]-1-piperidinyl}phenyl)sulfonyl]-2-pyrrolidinecarboxylate]
11 | 5600 nM | (0.43) | 16 nM | (0.89) | 900 nM | (0.42) | CCOC(=O)[C@H](CC(C)C)NS(=O)(=O)c1ccc(N2CCC(NC[C@H](O)c3ccc(O)c(NS(C)(=O)=O)c3)CC2)cc1 [Example 37, Ethyl (2S)-2-{[(4-{4-[((2R)-2-Hydroxy-2-{4-hydroxy-3-[(methylsulfonyl)amino]-phenyl}ethyl)amino]-1-piperidinyl}phenyl)sulfonyl]amino}-4-methylpentanoate]
12 | 1100 nM | (0.5) | 32 nM | (1.1) | 380 nM | (0.32) | CCOC(=O)[C@@H](NS(=O)(=O)c1ccc(N2CCC(NC[C@H](O)c3ccc(O)c(NS(C)(=O)=O)c3)CC2)cc1)C(C)C [Example 38, Ethyl (2S)-2-{[(4-{4-[((2R)-2-hydroxy-2-{4-hydroxy-3-[(methylsulfonyl)amino]-phenyl}ethyl)amino]-1-piperidinyl}phenyl)sulfonyl]amino}-3-methylbutanoate]
13 | 10000 nM | (0.42) | 30 nM | (1) |  | (0.23) | CS(=O)(=O)Nc1cc([C@@H](O)CNC2CCN(c3ccc(S(=O)(=O)N4CCC[C@H]4C(=O)O)cc3)CC2)ccc1O [Example 39, (2S)-1-[(4-{4-[((2R)-2-Hydroxy-2-{4-hydroxy-3-[(methylsulfonyl)amino]-phenyl}ethyl)amino]-1-piperidinyl}phenyl)sulfonyl]-2-pyrrolidinecarboxylic Acid]
